Measurements from ChEMBL document CHEMBL4295262, “Evaluation of the utility of stem-cell derived cardiomyocytes for drug proarrhythmic potential” (2019).

Assays:
Conditions in all cases: human, ipsc-cm
[1] = (§1) Electrical activity assay on cell lines treated with a given drug. DMSO was used as a vehicle and a control, unblinded dofetilide was used as a control.
[2] = as §1; format: ADME, cell-based; design: FPDc: unit not given here
[3] = as §1; format: cell-based; design: APDc: unit not given here
[4] = as §1; remark: listed apart in the source
[5] = as §1; format: ADME, cell-based
[6] = as §1; format: ADME, cell-based; remark: listed apart in the source
[7] = as §1; remark: listed apart in the source
[8] = 0.0001 µM, concentration (um) 0.0001 uM
[9] = 0.001 µM, concentration (um) 0.001 uM
[10] = 0.01 µM, concentration (um) 0.01 uM
[11] = 0.1 µM, concentration (um) 0.1 uM
[12] = 10 µM, concentration (um) 10 uM
[13] = 100 µM, concentration (um) 100 uM
[14] = 0.0009507 µM, concentration (um) 0.000950736 uM
[15] = 0.003004 µM, concentration (um) 0.00300433 uM
[16] = 0.009494 µM, concentration (um) 0.00949367 uM
[17] = 0.03 µM, concentration (um) 0.03 uM
[18] = 0.9507 µM, concentration (um) 0.950736 uM
[19] = 3.004 µM, concentration (um) 3.00433 uM
[20] = 9.494 µM, concentration (um) 9.49367 uM
[21] = 30 µM, concentration (um) 30 uM

## COc1ccc(CCN2CCC(Nc3nc4ccccc4n3Cc3ccc(F)cc3)CC2)cc1 [ASTEMIZOLE]
[1]; 0.0001 µM
  FPD measurement: 55.11 FPDc
  FPDc: 55.11
[1]; 0.001 µM
  FPD measurement: 55.33 FPDc
  FPDc: 55.33
[1]; 0.01 µM
  FPD measurement: 57.8 FPDc
  FPDc: 57.8
[1]; 0.1 µM
  FPD measurement: 75.34 FPDc
  FPDc: 75.34
[2]; [8]
  FPD measurement: 5 Values Out Of 5 Were Excluded Due To Quiescence Or 0 Apdc
  FPDc: 53.45
[2]; [9]
  FPD measurement: 5 Values Out Of 5 Were Excluded Due To Quiescence Or 0 Apdc
  FPDc: 49.25
[2]; [10]
  FPD measurement: 5 Values Out Of 5 Were Excluded Due To Quiescence Or 0 Apdc
  FPDc: 53.23
[2]; [11]
  FPD measurement: 5 Values Out Of 5 Were Excluded Due To Quiescence Or 0 Apdc
  FPDc: 40.28
[3]; [8]
  APDc: 54.17
  FPD measurement: 54.17 FPDc
[3]; [9]
  APDc: 53.88
  FPD measurement: 53.88 FPDc
[3]; [10]
  APDc: 57.03
  FPD measurement: 57.03 FPDc
[3]; [11]
  APDc: 77.9
  FPD measurement: 77.9 FPDc
[4]; 0.0001 µM
  FPD measurement: 1 Values Out Of 1 Were Excluded Due To Quiescence Or 0 Fpdc
  FPDc: 1 Values Out Of 1 Were Excluded Due To Quiescence Or 0 Fpdc
[4]; 0.001 µM
  FPD measurement: 1 Values Out Of 1 Were Excluded Due To Quiescence Or 0 Fpdc
  FPDc: 1 Values Out Of 1 Were Excluded Due To Quiescence Or 0 Fpdc
[4]; 0.01 µM
  FPD measurement: 1 Values Out Of 1 Were Excluded Due To Quiescence Or 0 Fpdc
  FPDc: 1 Values Out Of 1 Were Excluded Due To Quiescence Or 0 Fpdc
[4]; 0.1 µM
  FPD measurement: 1 Values Out Of 1 Were Excluded Due To Quiescence Or 0 Fpdc
  FPDc: 1 Values Out Of 1 Were Excluded Due To Quiescence Or 0 Fpdc

## CC(C)N(CCC(C(N)=O)(c1ccccc1)c1ccccn1)C(C)C (configuration not stated) [DISOPYRAMIDE]
[5]; [11]
  FPD measurement: 49.69 FPDc
  FPDc: 6 Values Out Of 6 Were Excluded Due To Quiescence Or 0 Fpdc
[5]; 1 µM, concentration (um) 1 uM
  FPD measurement: 52.18 FPDc
  FPDc: 6 Values Out Of 6 Were Excluded Due To Quiescence Or 0 Fpdc
[5]; [12]
  FPD measurement: 63.31 FPDc
  FPDc: 6 Values Out Of 6 Were Excluded Due To Quiescence Or 0 Fpdc
[5]; [13]
  FPDc: 6 Values Out Of 6 Were Excluded Due To Quiescence Or 0 Fpdc
[6]; [11]
  FPD measurement: 5 Values Out Of 5 Were Excluded Due To Quiescence Or 0 Apdc
  FPDc: 23.29
[6]; 1 µM, concentration (um) 1 uM
  FPD measurement: 5 Values Out Of 5 Were Excluded Due To Quiescence Or 0 Apdc
  FPDc: 24.45
[6]; [12]
  FPD measurement: 5 Values Out Of 5 Were Excluded Due To Quiescence Or 0 Apdc
  FPDc: 24.5
[6]; [13]
  FPD measurement: More Than Half The Wells Had A Quiescence Event Or Apdc Readings Of 0
  FPDc: More Than Half The Wells Had A Quiescence Event Or Fpdc Readings Of 0
[2]; [11]
  FPD measurement: 5 Values Out Of 5 Were Excluded Due To Quiescence Or 0 Apdc
  FPDc: 48.43
[2]; 1 µM, concentration (um) 1 uM
  FPD measurement: 5 Values Out Of 5 Were Excluded Due To Quiescence Or 0 Apdc
  FPDc: 75.52
[2]; [12]
  FPDc: 26.6
[2]; [13]
  FPD measurement: 5 Values Out Of 5 Were Excluded Due To Quiescence Or 0 Apdc
  FPDc: 18.51
[4]; 0.1 µM
  FPD measurement: 1 Values Out Of 1 Were Excluded Due To Quiescence Or 0 Fpdc
  FPDc: 1 Values Out Of 1 Were Excluded Due To Quiescence Or 0 Fpdc
[4]; 1 µM
  FPD measurement: 1 Values Out Of 1 Were Excluded Due To Quiescence Or 0 Fpdc
  FPDc: 1 Values Out Of 1 Were Excluded Due To Quiescence Or 0 Fpdc
[4]; 10 µM
  FPD measurement: 1 Values Out Of 1 Were Excluded Due To Quiescence Or 0 Fpdc
  FPDc: 1 Values Out Of 1 Were Excluded Due To Quiescence Or 0 Fpdc
[4]; 100 µM
  FPD measurement: 1 Values Out Of 1 Were Excluded Due To Quiescence Or 0 Fpdc
  FPDc: 1 Values Out Of 1 Were Excluded Due To Quiescence Or 0 Fpdc
[7]; 0.1 µM
  APDc: 56.58
  FPD measurement: 56.58 FPDc
[7]; 1 µM
  APDc: 63.45
  FPD measurement: 63.45 FPDc
[7]; 10 µM
  APDc: 68.66
  FPD measurement: 68.66 FPDc
[7]; 100 µM
  APDc: 66.87
  FPD measurement: 66.87 FPDc

## O=c1[nH]c2ccccc2n1C1CCN(CCCC(c2ccc(F)cc2)c2ccc(F)cc2)CC1 [PIMOZIDE]
[5]; [14]
  FPD measurement: 46.31 FPDc
  FPDc: 6 Values Out Of 6 Were Excluded Due To Quiescence Or 0 Fpdc
[5]; [15]
  FPD measurement: 49.59 FPDc
  FPDc: 6 Values Out Of 6 Were Excluded Due To Quiescence Or 0 Fpdc
[5]; [16]
  FPD measurement: 61.97 FPDc
  FPDc: 6 Values Out Of 6 Were Excluded Due To Quiescence Or 0 Fpdc
[5]; [17]
  FPD measurement: 56.98 FPDc
  FPDc: 6 Values Out Of 6 Were Excluded Due To Quiescence Or 0 Fpdc
[2]; [14]
  FPDc: 18.43
[2]; [15]
  FPD measurement: 5 Values Out Of 5 Were Excluded Due To Quiescence Or 0 Apdc
  FPDc: 26.86
[2]; [16]
  FPDc: 37.06
[2]; [17]
  FPDc: 13.57
[3]; [14]
  APDc: 66.03
  FPD measurement: 66.03 FPDc
[3]; [15]
  APDc: 67.09
  FPD measurement: 67.09 FPDc
[3]; [16]
  APDc: 74.77
  FPD measurement: 74.77 FPDc
[3]; [17]
  APDc: 98.75
  FPD measurement: 98.75 FPDc
[4]; 0.0009507 µM
  FPD measurement: 1 Values Out Of 1 Were Excluded Due To Quiescence Or 0 Fpdc
  FPDc: 1 Values Out Of 1 Were Excluded Due To Quiescence Or 0 Fpdc
[4]; 0.003004 µM
  FPD measurement: 1 Values Out Of 1 Were Excluded Due To Quiescence Or 0 Fpdc
  FPDc: 1 Values Out Of 1 Were Excluded Due To Quiescence Or 0 Fpdc
[4]; 0.009494 µM
  FPD measurement: 1 Values Out Of 1 Were Excluded Due To Quiescence Or 0 Fpdc
  FPDc: 1 Values Out Of 1 Were Excluded Due To Quiescence Or 0 Fpdc
[4]; 0.03 µM
  FPD measurement: 1 Values Out Of 1 Were Excluded Due To Quiescence Or 0 Fpdc
  FPDc: 1 Values Out Of 1 Were Excluded Due To Quiescence Or 0 Fpdc

## C=C[C@H]1C[N@@]2CC[C@H]1C[C@@H]2[C@@H](O)c1ccnc2ccc(OC)cc12 [QUINIDINE]
[5]; [18]
  FPD measurement: 114.6 FPDc
  FPDc: 6 Values Out Of 6 Were Excluded Due To Quiescence Or 0 Fpdc
[5]; [19]
  FPD measurement: 62.36 FPDc
  FPDc: 6 Values Out Of 6 Were Excluded Due To Quiescence Or 0 Fpdc
[5]; [20]
  FPDc: 6 Values Out Of 6 Were Excluded Due To Quiescence Or 0 Fpdc
[5]; [21]
  FPDc: 6 Values Out Of 6 Were Excluded Due To Quiescence Or 0 Fpdc
[6]; [18]
  FPD measurement: 5 Values Out Of 5 Were Excluded Due To Quiescence Or 0 Apdc
  FPDc: 23.33
[6]; [19]
  FPD measurement: 5 Values Out Of 5 Were Excluded Due To Quiescence Or 0 Apdc
  FPDc: 5 Values Out Of 5 Were Excluded Due To Quiescence Or 0 Fpdc
[6]; [20]
  FPD measurement: More Than Half The Wells Had A Quiescence Event Or Apdc Readings Of 0
  FPDc: More Than Half The Wells Had A Quiescence Event Or Fpdc Readings Of 0
[6]; [21]
  FPD measurement: More Than Half The Wells Had A Quiescence Event Or Apdc Readings Of 0
  FPDc: More Than Half The Wells Had A Quiescence Event Or Fpdc Readings Of 0
[1]; 0.9507 µM
  FPD measurement: 66.27 FPDc
  FPDc: 66.27
[1]; 3.004 µM
  FPD measurement: More Than Half The Wells Had A Quiescence Event Or Fpdc Readings Of 0
  FPDc: More Than Half The Wells Had A Quiescence Event Or Fpdc Readings Of 0
[1]; 9.494 µM
  FPD measurement: More Than Half The Wells Had A Quiescence Event Or Fpdc Readings Of 0
  FPDc: More Than Half The Wells Had A Quiescence Event Or Fpdc Readings Of 0
[1]; 30 µM
  FPD measurement: More Than Half The Wells Had A Quiescence Event Or Fpdc Readings Of 0
  FPDc: More Than Half The Wells Had A Quiescence Event Or Fpdc Readings Of 0
[2]; [18]
  FPD measurement: 5 Values Out Of 5 Were Excluded Due To Quiescence Or 0 Apdc
  FPDc: 51.68
[2]; [19]
  FPD measurement: 5 Values Out Of 5 Were Excluded Due To Quiescence Or 0 Apdc
  FPDc: 48.01
[2]; [20]
  FPD measurement: 5 Values Out Of 5 Were Excluded Due To Quiescence Or 0 Apdc
  FPDc: 56.69
[2]; [21]
  FPD measurement: 5 Values Out Of 5 Were Excluded Due To Quiescence Or 0 Apdc
  FPDc: 51.52
[7]; 0.9507 µM
  APDc: 66.37
  FPD measurement: 66.37 FPDc
[7]; 3.004 µM
  APDc: 68.44
  FPD measurement: 68.44 FPDc
[7]; 9.494 µM
  APDc: More Than Half The Wells Had A Quiescence Event Or Apdc Readings Of 0
  FPD measurement: More Than Half The Wells Had A Quiescence Event Or Apdc Readings Of 0
[7]; 30 µM
  APDc: More Than Half The Wells Had A Quiescence Event Or Apdc Readings Of 0
  FPD measurement: More Than Half The Wells Had A Quiescence Event Or Apdc Readings Of 0
